Test results as given in ChEMBL document CHEMBL4411307, “N,N'-diaryl-bishydrazones in a biphenyl platform: Broad spectrum antifungal agents” (Eur J Med Chem, 2019).
In brackets after ≈: the same amount, converted by molar mass. Activity calls are given as the source filed them. The rule behind the calls is not given here.

Key:
[1] = Hemolytic activity in mouse RBC at 3.9 ug/ml after 1 hr relative to control; format: ADME, cell-based, Erythrocyte; details: red blood cells (erythrocytes), read-out: Activity
[2] = Selectivity index, ratio of compound concentration showing <20 to <30% hemolysis in mouse RBC to MIC for fluconazole/ITC-susceptible Candida albicans ATCC MYA-2876; format: toxicity; details: red blood cells (erythrocytes), read-out: Selectivity Index
[3] = test system: Candida albicans; experiment: Antifungal activity against fluconazole/ITC-susceptible Candida albicans ATCC MYA-2876 measured after 48 hrs by CLSI M27-A3 protocol based method; format: functional; details: ATCC MYA-2876, 48 h
[4] = Selectivity index, ratio of CC50 for human A549 cells to MIC for fluconazole/ITC-resistant Candida albicans ATCC MYA-1003; format: toxicity; details: read-out: Selectivity Index
[5] = Selectivity index, ratio of compound concentration showing <20 to <30% hemolysis in mouse RBC to MIC for Candida glabrata ATCC 2001; format: toxicity; details: mouse red blood cells (RBC), read-out: Selectivity Index
[6] = Selectivity index, ratio of CC50 for human A549 cells to MIC for Aspergillus nidulans ATCC 38163; format: toxicity; details: read-out: Selectivity Index
[7] = Hemolytic activity in mouse RBC at 62.5 ug/ml after 1 hr relative to control; format: ADME, cell-based, Erythrocyte; details: red blood cells (erythrocytes), read-out: Activity
[8] = test system: Aspergillus flavus; experiment: Antifungal activity against Aspergillus flavus ATCC MYA-3631 measured after 48 hrs by CLSI M38-A2 protocol based method; format: functional; details: ATCC MYA-3631, 48 h
[9] = Selectivity index, ratio of CC50 for human A549 cells to MIC for fluconazole/ITC-susceptible Candida albicans ATCC MYA-2310; format: toxicity; details: read-out: Selectivity Index
[10] = test system: Candida albicans; experiment: Antifungal activity against fluconazole/ITC-susceptible Candida albicans ATCC MYA-2310 measured after 48 hrs by CLSI M27-A3 protocol based method; format: functional; details: ATCC MYA-2310, 48 h
[11] = test system: Enterococcus; experiment: Antibacterial activity against vancomycin-resistant Enterococcus; format: functional, organism-based
[12] = test system: Candida albicans; experiment: Antifungal activity against fluconazole/ITC-resistant Candida albicans ATCC 64124 measured after 48 hrs by CLSI M27-A3 protocol based method; format: functional; details: ATCC 64124, 48 h
[13] = Hemolytic activity in mouse RBC at 1.95 ug/ml after 1 hr relative to control; format: ADME, cell-based, Erythrocyte; details: red blood cells (erythrocytes), read-out: Activity
[14] = Hemolytic activity in mouse RBC at […] ug/ml after 1 hr relative to control; format: ADME, cell-based, Erythrocyte; details: red blood cells (erythrocytes), read-out: Activity
[15] = test system: Staphylococcus aureus; experiment: Antibacterial activity against methicillin-resistant Staphylococcus aureus; format: functional, organism-based
[16] = Selectivity index, ratio of compound concentration showing <20 to <30% hemolysis in mouse RBC to MIC for Aspergillus terreus ATCC MYA-3633; format: toxicity; details: mouse red blood cells (RBC), read-out: Selectivity Index
[17] = Hemolytic activity in mouse RBC at 7.8 ug/ml after 1 hr relative to control; format: ADME, cell-based, Erythrocyte; details: red blood cells (erythrocytes), read-out: Activity
[18] = Selectivity index, ratio of CC50 for human A549 cells to MIC for fluconazole/ITC-resistant Candida albicans ATCC 10231; format: toxicity; details: read-out: Selectivity Index
[19] = test system: Nakaseomyces glabratus; experiment: Antifungal activity against Candida glabrata ATCC 2001 measured after 48 hrs by CLSI M27-A3 protocol based method; format: functional; details: CBS 138, 48 h
[20] = Hemolytic activity in mouse RBC at […] after 1 hr relative to control; format: ADME, cell-based, Erythrocyte; details: red blood cells (erythrocytes), read-out: Activity; also: tested at 0.48 µg/mL
[21] = Selectivity index, ratio of compound concentration showing <20 to <30% hemolysis in mouse RBC to MIC for Aspergillus flavus ATCC MYA-3631; format: toxicity; details: mouse red blood cells (RBC), read-out: Selectivity Index
[22] = Selectivity index, ratio of CC50 for human A549 cells to MIC for fluconazole/ITC-resistant Candida albicans ATCC 64124; format: toxicity; details: read-out: Selectivity Index
[23] = Selectivity index, ratio of CC50 for human A549 cells to MIC for fluconazole/ITC-resistant Candida albicans ATCC 90819; format: toxicity; details: read-out: Selectivity Index
[24] = test system: Aspergillus terreus; experiment: Antifungal activity against Aspergillus terreus ATCC MYA-3633 measured after 48 hrs by CLSI M38-A2 protocol based method; format: functional; details: ATCC MYA-3633, 48 h
[25] = Selectivity index, ratio of CC50 for human A549 cells to MIC for fluconazole/ITC-susceptible Candida albicans ATCC MYA-2876; format: toxicity; details: read-out: Selectivity Index
[26] = test system: Candida albicans; experiment: Antifungal activity against fluconazole/ITC-resistant Candida albicans ATCC 90819 measured after 48 hrs by CLSI M27-A3 protocol based method; format: functional; details: ATCC 90819, 48 h
[27] = test system: BEAS-2B; experiment: Cytotoxicity against human BEAS2B cells after 24 hrs by resazurin based assay; format: cell-based
[28] = test system: Candida albicans; experiment: Antifungal activity against fluconazole/ITC-resistant Candida albicans ATCC 10231 measured after 48 hrs by CLSI M27-A3 protocol based method; format: functional; details: ATCC 10231, 48 h
[29] = test system: Listeria monocytogenes; experiment: Antibacterial activity against Listeria monocytogenes; format: functional, organism-based
[30] = Selectivity index, ratio of compound concentration showing <20 to <30% hemolysis in mouse RBC to MIC for fluconazole/ITC-resistant Candida albicans ATCC MYA-1003; format: toxicity; details: mouse red blood cells (RBC), read-out: Selectivity Index
[31] = Selectivity index, ratio of compound concentration showing <20 to <30% hemolysis in mouse RBC to MIC for fluconazole/ITC-resistant Candida albicans ATCC 64124; format: toxicity; details: red blood cells (erythrocytes), read-out: Selectivity Index
[32] = test system: Candida albicans; experiment: Antifungal activity against fluconazole/ITC-resistant Candida albicans ATCC MYA-1237 measured after 48 hrs by CLSI M27-A3 protocol based method; format: functional; details: ATCC MYA-1237, 48 h
[33] = test system: Candida parapsilosis; experiment: Antifungal activity against Candida parapsilosis ATCC 22019 measured after 48 hrs by CLSI M27-A3 protocol based method; format: functional; details: Lodderomyces parapsilosis, ATCC 22019, 48 h
[34] = Selectivity index, ratio of CC50 for human A549 cells to MIC for Candida parapsilosis ATCC 22019; format: toxicity; details: read-out: Selectivity Index
[35] = test system: Candida albicans; experiment: Antifungal activity against fluconazole/ITC-resistant Candida albicans ATCC MYA-1003 measured after 48 hrs by CLSI M27-A3 protocol based method; format: functional; details: ATCC MYA-1003, 48 h
[36] = molecular target: Voltage-gated inwardly rectifying potassium channel KCNH2 (Homo sapiens, UniProt Q12809); experiment: Inhibition of [3H]-dofetilide binding to human ERG expressed in HEK293 cell membranes measured after 1 hr by liquid scintillation counting method
Chain of Voltage-gated inwardly rectifying potassium channel KCNH2 (Q12809 whole entry): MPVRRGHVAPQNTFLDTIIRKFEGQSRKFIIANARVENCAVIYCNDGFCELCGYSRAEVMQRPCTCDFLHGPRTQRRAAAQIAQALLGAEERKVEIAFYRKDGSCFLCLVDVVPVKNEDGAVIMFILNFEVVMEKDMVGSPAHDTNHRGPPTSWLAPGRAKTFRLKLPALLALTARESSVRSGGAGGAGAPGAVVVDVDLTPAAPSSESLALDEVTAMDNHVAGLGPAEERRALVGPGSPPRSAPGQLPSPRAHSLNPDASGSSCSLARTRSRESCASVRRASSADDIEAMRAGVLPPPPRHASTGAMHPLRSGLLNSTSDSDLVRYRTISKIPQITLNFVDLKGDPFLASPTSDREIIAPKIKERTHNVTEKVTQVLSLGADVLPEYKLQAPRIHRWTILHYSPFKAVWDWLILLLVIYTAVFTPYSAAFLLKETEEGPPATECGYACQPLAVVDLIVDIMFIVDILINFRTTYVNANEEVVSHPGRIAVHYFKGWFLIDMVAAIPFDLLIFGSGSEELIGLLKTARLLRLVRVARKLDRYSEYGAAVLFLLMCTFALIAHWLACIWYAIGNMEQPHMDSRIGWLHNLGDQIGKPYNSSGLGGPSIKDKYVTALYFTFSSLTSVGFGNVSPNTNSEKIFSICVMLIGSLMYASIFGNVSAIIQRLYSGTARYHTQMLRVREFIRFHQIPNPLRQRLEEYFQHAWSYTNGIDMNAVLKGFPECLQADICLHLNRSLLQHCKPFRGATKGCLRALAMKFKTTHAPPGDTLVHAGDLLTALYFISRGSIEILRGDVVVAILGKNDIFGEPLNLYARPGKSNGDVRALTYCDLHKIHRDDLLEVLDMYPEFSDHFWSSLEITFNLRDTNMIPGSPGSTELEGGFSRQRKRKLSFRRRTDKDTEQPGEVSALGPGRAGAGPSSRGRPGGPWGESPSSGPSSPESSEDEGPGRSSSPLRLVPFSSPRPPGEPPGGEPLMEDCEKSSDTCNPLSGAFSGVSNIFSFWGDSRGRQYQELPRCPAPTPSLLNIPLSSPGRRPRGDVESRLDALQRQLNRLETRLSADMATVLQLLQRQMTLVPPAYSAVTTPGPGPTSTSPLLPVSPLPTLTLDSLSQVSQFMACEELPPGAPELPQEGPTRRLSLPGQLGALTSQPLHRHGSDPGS

[37] = Selectivity index, ratio of compound concentration showing <20 to <30% hemolysis in mouse RBC to MIC for fluconazole/ITC-resistant Candida albicans ATCC MYA-1237; format: toxicity; details: mouse red blood cells (RBC), read-out: Selectivity Index
[38] = Selectivity index, ratio of CC50 for human A549 cells to MIC for Aspergillus flavus ATCC MYA-3631; format: toxicity; details: read-out: Selectivity Index
[39] = test system: Pichia kudriavzevii; experiment: Antifungal activity against Candida krusei ATCC 6258 measured after 48 hrs by CLSI M27-A3 protocol based method; format: functional; details: ATCC 6258, 48 h
[40] = Selectivity index, ratio of compound concentration showing <20 to <30% hemolysis in mouse RBC to MIC for fluconazole/ITC-resistant Candida albicans ATCC 90819; format: toxicity; details: red blood cells (erythrocytes), read-out: Selectivity Index
[41] = Selectivity index, ratio of CC50 for human A549 cells to MIC for Aspergillus terreus ATCC MYA-3633; format: toxicity; details: read-out: Selectivity Index
[42] = Selectivity index, ratio of compound concentration showing <20 to <30% hemolysis in mouse RBC to MIC for fluconazole/ITC-resistant Candida albicans ATCC 10231; format: toxicity; details: red blood cells (erythrocytes), read-out: Selectivity Index
[43] = test system: Aspergillus nidulans; experiment: Antifungal activity against Aspergillus nidulans ATCC 38163 measured after 48 hrs by CLSI M38-A2 protocol based method; format: functional; details: ATCC 38163, 48 h
[44] = Selectivity index, ratio of compound concentration showing <20 to <30% hemolysis in mouse RBC to MIC for Candida parapsilosis ATCC 22019; format: toxicity; details: mouse red blood cells (RBC), read-out: Selectivity Index
[45] = Selectivity index, ratio of CC50 for human A549 cells to MIC for Candida glabrata ATCC 2001; format: toxicity; details: read-out: Selectivity Index
[46] = test system: A549; experiment: Cytotoxicity against human A549 cells after 24 hrs by resazurin based assay; format: cell-based; details: a549, 24 h
[47] = Selectivity index, ratio of compound concentration showing <20 to <30% hemolysis in mouse RBC to MIC for Aspergillus nidulans ATCC 38163; format: toxicity; details: mouse red blood cells (RBC), read-out: Selectivity Index
[48] = Selectivity index, ratio of CC50 for human A549 cells to MIC for Candida krusei ATCC 6258; format: toxicity; details: read-out: Selectivity Index
[49] = Selectivity index, ratio of CC50 for human A549 cells to MIC for fluconazole/ITC-resistant Candida albicans ATCC MYA-1237; format: toxicity; details: read-out: Selectivity Index
[50] = Hemolytic activity in mouse RBC at 31.3 ug/ml after 1 hr relative to control; format: ADME, cell-based, Erythrocyte; details: red blood cells (erythrocytes), read-out: Activity
[51] = Selectivity index, ratio of compound concentration showing <20 to <30% hemolysis in mouse RBC to MIC for fluconazole/ITC-susceptible Candida albicans ATCC MYA-2310; format: toxicity; details: mouse red blood cells (RBC), read-out: Selectivity Index
[52] = Selectivity index, ratio of compound concentration showing <20 to <30% hemolysis in mouse RBC to MIC for Candida krusei ATCC 6258; format: toxicity; details: mouse red blood cells (RBC), read-out: Selectivity Index

For `Fc1ccc(N/N=C/c2ccc(-c3cccc(/C=N/Nc4ccc(F)cc4)c3)cc2)cc1`, the hemolysis at 1 h, 3.9 ug/ml [1] was 4.3%, the selectivity ratio [2] was 1 to 32 and the MIC [3] was 7.8 mg/L (≈ 18.3 µM). The selectivity ratio [4] was 8, the selectivity ratio [5] was 1 to 32 and the selectivity ratio [6] was 8. It also gave a hemolysis at 1 h, 62.5 ug/ml [7] of 26.1%, an MIC [8] of 15.6 mg/L (≈ 36.6 µM) and a selectivity ratio [9] of 4. For the same molecule, the MIC [10] was 7.8 mg/L (≈ 18.3 µM), the Activity [11] was “inactive” and the MIC [12] was 15.6 mg/L (≈ 36.6 µM). For the same molecule, the hemolysis at 1 h, 1.95 ug/ml [13] was 6%, the hemolysis at 1 h, 15.6 ug/ml ([14]; at 15.6 µg/mL) was 9.9% and the hemolysis at 1 h, 0.975 ug/ml [14] was 0%. For the same molecule, the Activity [15] was “inactive”, the selectivity ratio [16] was 1 to 32 and the hemolysis at 1 h, 7.8 ug/ml [17] was 9.5%. It also gave a selectivity ratio [18] of 16, an MIC [19] greater than 31.3 mg/L and a hemolysis at 1 h, […] [20] of 0.1%. For the same molecule, the selectivity ratio [21] was 1 to 32, the selectivity ratio [22] was 2 and the selectivity ratio [23] was 1. The MIC [24] was greater than 31.3 mg/L, the selectivity ratio [25] was 4 and the MIC [26] was greater than 31.3 mg/L. For the same molecule, the CC50 [27] was greater than 31 mg/L, the MIC [28] was 1.95 to 3.9 mg/L (≈ 4.57 to 9.14 µM) and the Activity [29] was “inactive”. For the same molecule, the selectivity ratio [30] was 1 to 32, the selectivity ratio [31] was 1 to 32 and the MIC [32] was 15.6 mg/L (≈ 36.6 µM). The MIC [33] was 31.3 mg/L (≈ 73.4 µM), the selectivity ratio [34] was 1 and the MIC [35] was 3.9 mg/L (≈ 9.14 µM). It also gave an IC50 [36] greater than 30 µM, a selectivity ratio [37] of 1 to 32 and a selectivity ratio [38] of 2. The MIC [39] was greater than 31.3 mg/L, the selectivity ratio [40] was 1 to 32 and the selectivity ratio [41] was 1. It also gave a selectivity ratio [42] of 1 to 32, an MIC [43] of 3.9 mg/L (≈ 9.14 µM) and a selectivity ratio [44] of 1 to 32. It also gave a selectivity ratio [45] of 1, a CC50 [46] greater than 31 mg/L and a selectivity ratio [47] of 1 to 32. It also gave a selectivity ratio [48] of 1, a selectivity ratio [49] of 2 and a hemolysis at 1 h, 31.3 ug/ml [50] of 14.4%. The selectivity ratio [51] was 1 to 32 and the selectivity ratio [52] was 1 to 32.
